Measured values taken from US20220395472A1 (Dermavant Sciences GmbH, priority 2021, published 2022).

Tested on: adults with plaque psoriasis
Experiment: Long-term open-label extension study (PSOARING 3): Physician Global Assessment (PGA), treatment episodes, treatment success, remittive effect
Type: in vivo, human
Procedure: This extension study consisted of up to 40 weeks of treatment and a 4 week, safety follow up period.
At the completion of the Week 12 visit of the DB, pivotal Phase 3 study, eligibility of the subjects opting to enroll in this extension study was confirmed. Study visits during the treatment period for all subjects occurred every 4 weeks (±3 days). A phone call was performed at Week 2 (Day 15). Unscheduled visits may have occurred, as needed. Subjects who withdrew from this study before Week 40 returned to the study center for an Early Termination visit. The total duration of this extension study participation was 44 weeks. Subjects in this study were treated as follows based on their PGA score from the Week 12 visit in the DB, pivotal Phase 3 study (Study DMVT 505 3001 or Study DMVT 505 3002).
The PGA was used to assess the primary efficacy endpoint in this study. The PGA is a clinical tool for assessing the current state/severity of a subject's psoriasis at a given time point. It is a static, 5 point, morphological assessment of overall disease severity, as determined by the Investigator, using the clinical characteristics of erythema, scaling, and plaque thickness/elevation as guidelines; higher PGA scores represent more severe disease (0=clear, 1=almost clear, 2=mild, 3=moderate, and 4=severe). The BSA affected was not considered in scoring of the PGA. Variations of the PGA are frequently used in clinical studies because it is a simple assessment, similar to those used in clinical practice. The PGA was performed first, prior to the % BSA, PASI, and LTS assessments.
Time to event parameters, such as the time from treatment success to subsequent worsening (PGA≥2) or duration of treatment episode, were summarized by the Kaplan Meier product limit method using OC.

[1] = Week 16, LOCF, Vehicle (Pivotal) group
[2] = Week 16, OC, Vehicle (Pivotal) group
[3] = Week 16 LOCF, Tapinarof (Pivotal)
[4] = Week 16 LOCF, Vehicle (Pivotal)
[5] = Week 16 OC, Tapinarof (Pivotal)

CC(C)c1c(O)cc(/C=C/c2ccccc2)cc1O [Tapinarof, 3,5-Dihydroxy-4-isopropyl-trans-stilbene]
Total Duration of Treatment Success, Median (ITT, Vehicle (Pivotal) group): 97.0 days | tachyphylaxis (decline of clinical effects over time on treatment) (PGA, % BSA, PASI over time): not observed | Subjects with PGA=1 (Week 16, LOCF, Tapinarof (Pivotal) group): 30.4% | Subjects with PGA=0 [1]: 12.7% | Subjects with PGA=1 [1]: 25.8% | Subjects with PGA=1 (Week 16, OC, Tapinarof (Pivotal) group): 32.2% | Subjects with PGA=0 [2]: 12.9% | Subjects with PGA=1 [2]: 28.2% | PGA 0 - Clear (Week 16 LOCF, Overall): 121 (16.2) n (%) | PGA 1 - Almost Clear (Week 16 LOCF, Overall): 215 (28.9) n (%) | PGA 2 - Mild (Week 16 LOCF, Overall): 279 (37.4) n (%) | PGA 3 - Moderate (Week 16 LOCF, Overall): 119 (16.0) n (%) | PGA 4 - Severe (Week 16 LOCF, Overall): 11 (1.5) n (%) | PGA Change from Baseline: Improved by 1 (Week 16 LOCF, Overall): 219 (29.5) n (%) | PGA Change from Baseline: Improved by 2 (Week 16 LOCF, Overall): 91 (12.3) n (%) | PGA Change from Baseline: Improved by 3 (Week 16 LOCF, Overall): 14 (1.9) n (%) | PGA Change from Baseline: Improved by 4 (Week 16 LOCF, Overall): 2 (0.3) n (%) | PGA Change from Baseline: No Change (Week 16 LOCF, Overall): 297 (40.0) n (%) | PGA Change from Baseline: Worsened by 1 (Week 16 LOCF, Overall): 86 (11.6) n (%) | PGA Change from Baseline: Worsened by 2 (Week 16 LOCF, Overall): 28 (3.8) n (%) | PGA Change from Baseline: Worsened by 3 (Week 16 LOCF, Overall): 5 (0.7) n (%) | PGA Change from Baseline: Worsened by 4 (Week 16 LOCF, Overall): 0 (0.0) n (%) | PGA 1 - Almost Clear [3]: 150 (30.4) n (%) | PGA 2 - Mild [3]: 174 (35.3) n (%) | PGA 3 - Moderate [3]: 74 (15.0) n (%) | PGA 4 - Severe [3]: 6 (1.2) n (%) | PGA Change from Baseline: Improved by 1 [3]: 122 (24.8) n (%) | PGA Change from Baseline: Improved by 2 [3]: 37 (7.5) n (%) | PGA Change from Baseline: Improved by 3 [3]: 1 (0.2) n (%) | PGA Change from Baseline: Improved by 4 [3]: 1 (0.2) n (%) | PGA Change from Baseline: No Change [3]: 223 (45.4) n (%) | PGA Change from Baseline: Worsened by 1 [3]: 77 (15.7) n (%) | PGA Change from Baseline: Worsened by 2 [3]: 25 (5.1) n (%) | PGA Change from Baseline: Worsened by 3 [3]: 5 (1.0) n (%) | PGA Change from Baseline: Worsened by 4 [3]: 0 (0.0) n (%) | PGA 0 - Clear [4]: 32 (12.7) n (%) | PGA 1 - Almost Clear [4]: 65 (25.8) n (%) | PGA 3 - Moderate [4]: 45 (17.9) n (%) | PGA 4 - Severe [4]: 5 (2.0) n (%) | PGA Change from Baseline: Improved by 1 [4]: 97 (38.6) n (%) | PGA Change from Baseline: Improved by 2 [4]: 54 (21.5) n (%) | PGA Change from Baseline: Improved by 3 [4]: 13 (5.2) n (%) | PGA Change from Baseline: Improved by 4 [4]: 1 (0.4) n (%) | PGA Change from Baseline: No Change [4]: 74 (29.5) n (%) | PGA Change from Baseline: Worsened by 1 [4]: 9 (3.6) n (%) | PGA Change from Baseline: Worsened by 2 [4]: 3 (1.2) n (%) | PGA Change from Baseline: Worsened by 3 [4]: 0 (0.0) n (%) | PGA Change from Baseline: Worsened by 4 [4]: 0 (0.0) n (%) | PGA 0 - Clear (Week 16 OC, Overall): 107 (17.0) n (%) | PGA 1 - Almost Clear (Week 16 OC, Overall): 194 (30.9) n (%) | PGA 2 - Mild (Week 16 OC, Overall): 236 (37.6) n (%) | PGA 3 - Moderate (Week 16 OC, Overall): 86 (13.7) n (%) | PGA 4 - Severe (Week 16 OC, Overall): 5 (0.8) n (%) | PGA Change from Baseline: Improved by 1 (Week 16 OC, Overall): 190 (30.3) n (%) | PGA Change from Baseline: Improved by 2 (Week 16 OC, Overall): 77 (12.3) n (%) | PGA Change from Baseline: Improved by 3 (Week 16 OC, Overall): 13 (2.1) n (%) | PGA Change from Baseline: Improved by 4 (Week 16 OC, Overall): 2 (0.3) n (%) | PGA Change from Baseline: No Change (Week 16 OC, Overall): 246 (39.2) n (%) | PGA Change from Baseline: Worsened by 1 (Week 16 OC, Overall): 69 (11.0) n (%) | PGA Change from Baseline: Worsened by 2 (Week 16 OC, Overall): 25 (4.0) n (%) | PGA Change from Baseline: Worsened by 3 (Week 16 OC, Overall): 5 (0.8) n (%) | PGA Change from Baseline: Worsened by 4 (Week 16 OC, Overall): 0 (0.0) n (%) | PGA 0 - Clear [5]: 80 (19.1) n (%) | PGA 1 - Almost Clear [5]: 135 (32.2) n (%) | PGA 2 - Mild [5]: 146 (34.8) n (%) | PGA 3 - Moderate [5]: 54 (12.9) n (%) | PGA 4 - Severe [5]: 4 (1.0) n (%) | PGA Change from Baseline: Improved by 1 [5]: 109 (26.1) n (%) | PGA Change from Baseline: Improved by 2 [5]: 29 (6.9) n (%) | PGA Change from Baseline: Improved by 3 [5]: 1 (0.2) n (%) | PGA Change from Baseline: Improved by 4 [5]: 1 (0.2) n (%) | PGA Change from Baseline: No Change [5]: 187 (44.7) n (%) | PGA Change from Baseline: Worsened by 2 [5]: 23 (5.5) n (%) | PGA Change from Baseline: Worsened by 3 [5]: 5 (1.2) n (%) | PGA Change from Baseline: Worsened by 4 [5]: 0 (0.0) n (%) | PGA 0 - Clear (Week 16 OC, Vehicle (Pivotal)): 27 (12.9) n (%) | PGA 1 - Almost Clear (Week 16 OC, Vehicle (Pivotal)): 59 (28.2) n (%) | PGA 2 - Mild (Week 16 OC, Vehicle (Pivotal)): 90 (43.1) n (%) | PGA 3 - Moderate (Week 16 OC, Vehicle (Pivotal)): 32 (15.3) n (%) | PGA 4 - Severe (Week 16 OC, Vehicle (Pivotal)): 1 (0.5) n (%) | PGA Change from Baseline: Improved by 1 (Week 16 OC, Vehicle (Pivotal)): 81 (38.8) n (%) | PGA Change from Baseline: Improved by 2 (Week 16 OC, Vehicle (Pivotal)): 48 (23.0) n (%) | PGA Change from Baseline: Improved by 3 (Week 16 OC, Vehicle (Pivotal)): 12 (5.7) n (%)
